The values below come from the NIST ThermoML archive (doi:10.1016/j.jct.2012.11.027).

Structures are written as SMILES. Numbers after ± are expanded uncertainties.

The conditions of data set [1]: 101 kPa, Liquid, Linear variable-path acoustic interferometer.
Data set [2] can be described thus: xn = mol fraction of the nth substance listed. The conditions noted are these: 101 kPa, Liquid, Linear variable-path acoustic interferometer, x2 = 0.

In general, speed of sound refers to the propagation velocity of pressure waves in the medium. For `CCCCO` [butan-1-ol], the speed of sound in data set [1] (288.15 K) was 1282.2 ± 1.9 m/s; in data set [1] (293.15 K), 1262.4 ± 1.9 m/s; in data set [1] (298.15 K), 1242.6 ± 1.8 m/s; in data set [1] (303.15 K) it was 1225.8 ± 1.8 m/s; in data set [1] (308.15 K), 1207.6 ± 1.8 m/s; in data set [1] (313.15 K), 1189.2 ± 1.8 m/s. In addition, in data set [1] (318.15 K), the speed of sound is recorded as 1170 ± 1.8 m/s.

Consider `CCCCO` [butan-1-ol] + C=CC(=O)OC, for which the speed of sound in data set [2] (288.15 K) is 1282.2 ± 1.9 m/s; in data set [2] (293.15 K), 1262.4 ± 1.9 m/s; in data set [2] (298.15 K), 1242.6 ± 1.8 m/s; in data set [2] (303.15 K) it was 1225.8 ± 1.8 m/s; in data set [2] (308.15 K), 1207.6 ± 1.8 m/s; in data set [2] (313.15 K) it was 1189.2 ± 1.8 m/s. Besides, the speed of sound in data set [2] (318.15 K) came out at 1170 ± 1.8 m/s.

For the compound `CCCCCCCCCCO` [decan-1-ol], the speed of sound turned out to be 1410.6 ± 2 m/s in data set [1] (288.15 K); 1393.6 ± 2 m/s in data set [1] (293.15 K); 1377.3 ± 2 m/s in data set [1] (298.15 K); 1359.8 ± 2 m/s in data set [1] (303.15 K); 1345.7 ± 2 m/s in data set [1] (308.15 K); 1326.7 ± 2 m/s in data set [1] (313.15 K). Moreover, in data set [1] (318.15 K), the speed of sound was 1312.1 ± 1.9 m/s.

With `CCCCCCCCCCO` [decan-1-ol] + C=CC(=O)OC, the speed of sound is listed as 1410.6 ± 2 m/s in data set [2] (288.15 K); 1393.6 ± 2 m/s in data set [2] (293.15 K); 1377.3 ± 2 m/s in data set [2] (298.15 K); 1359.8 ± 2 m/s in data set [2] (303.15 K); 1345.7 ± 2 m/s in data set [2] (308.15 K); 1326.7 ± 2 m/s in data set [2] (313.15 K). The speed of sound in data set [2] (318.15 K) is recorded as 1312.1 ± 1.9 m/s.

`CCCCCCO` [hexan-1-ol]: the speed of sound in data set [1] (288.15 K) came out at 1339.2 ± 1.9 m/s; in data set [1] (293.15 K) it was 1321.2 ± 1.9 m/s; in data set [1] (298.15 K), 1306.9 ± 1.9 m/s; in data set [1] (303.15 K), 1289.5 ± 1.9 m/s; in data set [1] (308.15 K), 1275.7 ± 1.9 m/s; in data set [1] (313.15 K), 1256.3 ± 1.9 m/s. The speed of sound in data set [1] (318.15 K) stood at 1237.5 ± 1.8 m/s.

Regarding `CCCCCCO` [hexan-1-ol] + C=CC(=O)OC, the speed of sound in data set [2] (288.15 K) was 1339.2 ± 1.9 m/s; in data set [2] (293.15 K), 1321.2 ± 1.9 m/s; in data set [2] (298.15 K) it was 1306.9 ± 1.9 m/s; in data set [2] (303.15 K), 1289.5 ± 1.9 m/s; in data set [2] (308.15 K) it was 1275.7 ± 1.9 m/s; in data set [2] (313.15 K), 1256.3 ± 1.9 m/s. In data set [2] (318.15 K), the speed of sound was 1237.5 ± 1.8 m/s.

For the compound `C=CC(=O)OC` [methyl propenoate], the speed of sound worked out at 1226.6 ± 1.8 m/s in data set [1] (288.15 K); 1204.6 ± 1.8 m/s in data set [1] (293.15 K); 1183.6 ± 1.8 m/s in data set [1] (298.15 K); 1162.2 ± 1.7 m/s in data set [1] (303.15 K); 1139.1 ± 1.7 m/s in data set [1] (308.15 K); 1117.8 ± 1.7 m/s in data set [1] (313.15 K). Also, the speed of sound in data set [1] (318.15 K) came to 1095.7 ± 1.7 m/s.

Regarding `CCCCCCCCO` [octan-1-ol], the speed of sound is given as 1390.2 ± 2 m/s in data set [1] (288.15 K); 1371.5 ± 2 m/s in data set [1] (293.15 K); 1352.4 ± 2 m/s in data set [1] (298.15 K); 1333.1 ± 2 m/s in data set [1] (303.15 K); 1315.7 ± 2 m/s in data set [1] (308.15 K); 1298.9 ± 1.9 m/s in data set [1] (313.15 K). For the same compound, the speed of sound in data set [1] (318.15 K) was determined as 1282.9 ± 1.9 m/s.

As for `CCCCCCCCO` [octan-1-ol] + C=CC(=O)OC, the speed of sound in data set [2] (288.15 K) worked out at 1390.2 ± 2 m/s; in data set [2] (293.15 K), 1371.5 ± 2 m/s; in data set [2] (298.15 K) it was 1352.4 ± 2 m/s; in data set [2] (303.15 K), 1333.1 ± 2 m/s; in data set [2] (308.15 K), 1315.7 ± 2 m/s; in data set [2] (313.15 K), 1298.9 ± 1.9 m/s. Besides, in data set [2] (318.15 K), the speed of sound is recorded as 1282.9 ± 1.9 m/s.
